Experimental data: patent US10631557B2, “Preservative system for acidic beverages based on sequestrants” (PepsiCo, Inc., priority 2008, dated 2020)
“And” between values parts separate entries of the source, which are not always exact repeats. Equal values may be shown once. Read-outs that look alike come from different tables or passages of the source.

Key:
Saccharomyces cerevisae = test: Growth in beverage acidified to pH 3.6 with malic acid (Example 33); format: cell-based
Strain Y3 [1] = test: Yeast strains spotted on agar-solidified beverage plates containing a weak organic acid (Example 25); format: cell-based, Zygossacharomyces bailii; conditions: sodium benzoate 700 or 1000 ppm, potassium sorbate 500 or 800 ppm, cinnamic acid 25-200 ppm
Description: A 2 fold concentrate of beverage was prepared and was then mixed with an equal volume of 15% molten agar. Before solidification of the agar, the single strength beverage formulation containing 7.5% molten agar, was then divided into aliquots and to each separate aliquot was added, with the exception of one, sodium benzoate, potassium sorbate or cinnamic acid. The aliquot not receiving either potassium sorbate or cinnamic acid served as a positive control. While the agar was still molten, the agar-beverage aliquots (containing a single weak acid at a specified concentration) were poured into separate Petri plates. In Two agar plates. sodium benzoate was present at either 700 ppm or 1000 ppm) Two agar plates contained potassium sorbate (500 or 800 ppm). Six agar plates contained cinnamic acid ranging in concentrations of 25-200 ppm. Agar solidification essentially provides single strength beverage formulation in a semi-solid state.
The 2 fold concentrate of single strength beverage and the agar supplemented single strength beverage is prepared as follows:
After solidification of juice-agar mixture, various yeast strains (FIG. 2A) were spotted to the gel-surface of each type of mixture employing an identical pattern in each test (FIG. 2B) such that it was possible to identify the outgrowth of specific individual strains. […]

[2] = tested on: all 7 bio-indicator strains; test: Inoculated 2% juice beverage pH 3.4, sequestrant and weak acid combinations (Examples 27-29); format: cell-based; conditions: for SHMP concentration that prohibits outgrowth of all 7 bio-indicator strains: potassium sorbate 0.015%
Excerpt: (§1) Copper, less than 1 microgram per liter Zinc less than 1 microgram per liter, Nickel, less than 1 microgram per liter and Iron less than 0.1 microgram per liter. The water hardness was/is adjusted to 50 ppm through addition of mixture of CaCl2 and MgCl2.
(§2) The spoilage organisms for the following examples are identified as follows: Y3, Zygosaccharomyces bailii isolate of Pepsi (Strain 906); C-7UP, Brettanomyces isolate of Pepsi, (Cherry 7-UP); Spore, ascospore preparation of Saccharomyces cerevisiae isolate of Pepsi (strain “spore”). Y22, ATCC 60484 Zygosacharomyces bailii; M1, Paecilomyces isolate of Pepsi; Y107 ATCC 52407; M2 ATCC 36614 Byssochlamys nieva. An inoculum of approximately 40 per milliliter was/is employed for each organism. All test samples were/are incubated 16 weeks at 25 C.
(§3) A preparation of beverage was divided into three aliquots; one was supplemented with EDTA (30 ppm) and the remaining two aliquots were supplemented with either 15 or 30 ppm EDDS.
(§4) The beverage aliquots were identical with the exception of the presence or concentration of either EDTA or EDDS. Each aliquot was divided further into smaller volume test samples wherein the concentration of potassium sorbate varies from 0-1500 ppm (0-0.15%). The concentration of EDTA or EDDS is held constant. Under these circumstances, it is possible to establish whether either EDTA or EDDS permitted the use of lowered concentrations of potassium sorbate to preserve a product of pH 3.4. […] The beverage is formulated to contain 50 ppm hardness.
The biodegradable sequestrant ethylene diamine disuccinic acid was admixed with a sodium hexametaphosphate and cinnamic acid in the beverage as shown in the formula for the beverage.
A 2% fruit juice based non-carbonated beverage of pH 3.4 and about 12 Brix was formed by combining the following ingredients.
The biodegradable sequestrant ethylene diamine disuccinic acid was admixed with a bis-phosphonate (Etidronate) wherein the two sequestrants combined to limit the availability of divalent cations to spoilage microorganisms. The beverage was also supplemented with potassium sorbate.
(§5) A 2% fruit juice based non-carbonated beverage of pH 3.4 and about 12Brix was formed by combining the following ingredients.

[3] = 25 C; cited from earlier work
[4] = Stability against heat or acid induced hydrolysis in beverage; format: physicochemical; conditions: thermal processing or ambient aqueous solution
Description: The maximum temperature of product in container of 71.3° C. permits the use of standard PET containers as opposed to the environmentally less-sound heat-set PET containers typically employed in hot fill operations. […] A formulation containing SHMP in place of bis-phosphonate will fail because of the degradation of SHMP that occurs during thermal processing.
Furthermore, the problem of pH drift that accompanies the use of SHMP is avoided. Substituting EDDS for EDTA avoids the concerns associated with employing a substance that is not environmentally sound.
Bis-phosphonates, as a substitute for SHMP, allows for the use of thermal processing of beverage in that all bis-phosphonates are stable against heat or acid induced hydrolysis. Such is not the case for polyphosphates such as SHMP. Furthermore, the problem of pH drift that accompanies the use of SHMP at ambient temperatures is avoided. Substituting EDDS for EDTA avoids the concerns associated with employing a substance that is not environmentally sound.

[5] = tested on: bio-indicators in the absence of Y3; conditions: potassium sorbate alone, pH 3.4, 16 weeks at 25 C, FIG. 3A
Excerpt: as §1, §2
(§6) A preparation of beverage was divided into multiple small volume aliquots, each aliquot containing a different concentration of potassium sorbate. The range of concentration of potassium sorbate is 0-0.094% (0-940 ppm). Preparations (aliquots) of beverage containing potassium sorbate at each test concentration (48 different values) are inoculated separately with one of 7 different spoilage organisms (bio-indicator) for a total of 336 test samples.
(§7) The 2% fruit juice based non-carbonated beverage of pH 3.4 and about 12 Brix was generated by combining the following ingredients.

strain Y3 [6] = conditions: potassium sorbate alone
Excerpt: as §1, §2, §6, §7

Mold (M1 & M6) = conditions: pH 3.4
Excerpt: as §1, §2, §6, §3, §5, §4

[7] = acid pH
Excerpt: Further, at least one regulatory agency in Asia has established an upper limit for the use of potassium sorbate at 50 ppm. If other regulatory agencies follow suite, it will be necessary to broadly apply a complement to potassium sorbate. […] Beverages are generally produced from concentrates and a […] beverage concentrate should contain 1200-1500 ppm potassium sorbate to yield a finished beverage concentration of 240-300 ppm. This often proves problematic during the batching of beverage and it is clear that a final beverage formulation containing 50-150 ppm potassium sorbate would be favored.

## NCCCC(O)(P(=O)(O)O)P(=O)(O)O [Alendronate, alendronate]
Saccharomyces cerevisae; 0.3% concentration, same beverage formulation pH 3.6
  effect on growth rate of Saccharomyces cerevisae: retards the growth rate

## O=C(O)C=Cc1ccccc1 [Cinnamic acid, cinnamic acid]
Strain Y3 [1]
  tolerance of strain Y3 to organic acid preservative (outgrowth on plate): among the most tolerant strains

## O=C(O)CC(NCCNC(CC(=O)O)C(=O)O)C(=O)O (centres unmarked) [EDDS, ethylenediamine-N,N′-disuccinic acid]
[2]; 15 or 30 ppm EDDS vs 30 ppm EDTA, potassium sorbate varied, FIGS. 4A-4C
  preservative performance compared with EDTA when combined with a single weak acid preservative: equivalent to EDTA

## O=C(O)CN(CCN(CC(=O)O)CC(=O)O)CC(=O)O [EDTA, ethylenediamine tetraacetic acid]
[3]
  log K for sodium: 1.7

## CC(O)(P(=O)(O)O)P(=O)(O)O [Etridonate, (1-hydroxyethylidene)bis-phosphonate]
[2]; with 30 ppm EDDS (so in the source) and 150 ppm potassium sorbate, pH 3.4, FIG. 6D
  Etridonate concentration that prevents outgrowth of all seven spoilage organisms: 250 ppm
[2]; with 30 ppm EDDS and 150 ppm potassium sorbate, pH 3.4, FIG. 6C
  Etridonate concentration that prohibits outgrowth of all seven bio-indicator strains: < 425 ppm and < 450 ppm

## CCCCCN(C)CCC(O)(P(=O)(O)O)P(=O)(O)O [Ibandronate, ibandronate]
Saccharomyces cerevisae; about 300 ppm, beverage pH 3.6 with malic acid
  effect on growth of Saccharomyces cerevisae: impair the growth

## O=C([O-])C=Cc1ccccc1.[K+] [K+cinnamate, Potassium Cinnamate]
[2]; with 30 ppm EDDS and 750 ppm SHMP, pH 3.4, FIG. 5B
  K+cinnamate concentration that prohibits outgrowth of all 7 bio-indicator strains: no more than 50 ppm
[2]; with 30 ppm EDTA and 750 ppm SHMP, pH 3.4, FIG. 5A
  K+cinnamate concentration that prohibits outgrowth of all 7 bio-indicator strains: 75 ppm

## O=P1([O-])OP(=O)([O-])OP(=O)([O-])OP(=O)([O-])OP(=O)([O-])OP(=O)([O-])O1.[Na+].[Na+].[Na+].[Na+].[Na+].[Na+] [SHMP, sodium hexametaphosphate]
[2]; with 30 ppm EDDS, pH 3.4, FIG. 6A
  SHMP concentration that prohibits outgrowth of all 7 bio-indicator strains: 280 ppm
[2]; with 30 ppm EDTA, pH 3.4, FIG. 6B
  SHMP concentration that prohibits outgrowth of all 7 bio-indicator strains: 250 ppm
[4]
  stability against heat or acid induced hydrolysis: degradation

## C/C=C/C=C/C(=O)[O-].[K+] [potassium sorbate]
[5]
  amount of potassium sorbate required to preserve product in the absence of Y3: 220-250 ppm
Strain Y3 [6]; pH 3.4, 16 weeks at 25 C, FIG. 3A
  concentration of potassium sorbate required to inhibit Y3 or similar strains: 550-600 ppm
Strain Y3 [6]; pH 3.4, FIG. 3A
  range of potassium sorbate concentrations with both growth and growth-free samples of Y3: 460-660 ppm
Mold (M1 & M6); combined with EDDS (30 ppm)
  concentration of potassium sorbate required to inhibit mold: 140-160 ppm
Mold (M1 & M6); combined with EDTA (30 ppm)
  concentration of potassium sorbate required to inhibit mold: 140-160 ppm
Mold (M1 & M6); potassium sorbate employed alone
  concentration of potassium sorbate required to inhibit mold: 180-200 ppm
[7]
  rate of dissolution: measurably low
  solubility: not particularly soluble
